Results taken from patent publication US20140248227A1, “DEODORIZING COMPOSITIONS” (Henkel AG & Co. KGaA, priority 2011, published 2014).

Test: odor evaluation of filter papers treated with active agent and artificial perspiration mixture by six trained testers
Settings: 0.5-wt % solution in ethanol on filter paper; 24 hours at room temperature; scale 0 (no difference from ethanol control) to 4 (very much better odor reduction)
Excerpt: An artificial perspiration mixture was produced by mixing different short-chain fatty acids at specific quantitative ratios (C6, C8, C9, C10, isovaleric acid). respective 0.5-wt % solutions in ethanol were produced of each of the active agents and active-agent combinations to be tested, applied in a standardized quantity onto filter paper, and dried for one hour at room temperature. The artificial perspiration mixture was then applied in a standardized quantity, and the filters were stored for 24 hours at room temperature in a closed container. An odor evaluation of the samples was carried out by six trained testers using a scale from 0 (no difference from ethanol control) to 4 (very much better odor reduction as compared with ethanol control).

SMILES	reduction in perspiration odor as compared with the ethanol control [units]
C/C=C\c1ccc(OC)cc1 [anethole]	2.42
CC12CCC(CC1)C(C)(C)O2 [eucalyptol, 1,3,3-trimethyl-2-oxabicyclo[2.2.2]octane]	0.92
CC(C)[C@@H]1CC[C@@H](C)C[C@H]1O (racemic) [DL-Menthol, DL-menthol]	1.67
